Test results published in article PMC2882366 (PLoS ONE, 2010).
Read-outs that look alike come from different tables or passages of the source.

Legend:
[1] = system: p-S6RP in canine osterosarcoma cell lines (BM, SK); assay: Immunoblot of p-S6RP in canine osteosarcoma cell lines; format: cell-based; conditions: 100 nM, BM and SK cells
Experimental: (§1) Protein concentration of lysates was determined by BCA protein assay (Pierce, Thermo Fischer Scientific, Rockford, IL). Lysates were separated with Invitrogen NuPage gels (Invitrogen, Carlsbad, CA) and transferred to nitrocellulose membranes. The blots were probed for the proteins of interest with specific antibodies followed by a secondary antibody (Cell Signaling Technology, Inc, Danvers, MA) and then incubated with SuperSignal chemiluminescence substrate (Pierce). The blots were then exposed to Kodak Biomax Light Film (Kodak, Rochester, NY). The antibodies against AKT and p-AKT (Ser473), S6RP and p-S6RP, and actin were obtained from Cell Signaling.
(§2) Controls were Jurkat cells treated with LY (−) or PMA (+). B. Quantitative determination of total and p-S6RP (S240/244) with electrochemiluminescence (ECL) assay. C. […] (1.56 MB TIF) Click here for additional data file.

[2] = Rapamycin whole blood pharmacokinetics (HPLC-MS/MS, non-compartmental) in dogs with osteosarcoma; format: in vivo, dog; conditions: for measurable trough levels: CD8, CD9; for concentration at 15 day / concentration at 8 day / concentration at 9 day / concentration at 48 h / Tmax / half-life / Cmax / AUC(0-t): dog, whole blood; for concentration at 15 day / concentration at 8 day / concentration at 9 day / concentration at 48 h: intramuscular; for concentration at 15 day: Day 15 (seven days after cessation), read-out: CD15; for concentration at 8 day: trough Day 8, median (range), read-out: CD8; for concentration at 9 day: trough Day 9, median (range), read-out: CD9; for concentration at 48 h: 48 h after first dose, read-out: C48h; for AUC(0-t): read-out: AUC0–48
Experimental: Subsequent doses were administered on days 3–8. Additional pharmacokinetic samples were obtained on days 8 (192h, day of definitive resection) and 9 (hr 216, after last day of dosing) and 15 (360 hr). […] Whole blood was transferred to cyrovials and stored at −80°C until analysis. Whole blood, serum and plasma were collected from all patients. Serum and plasma samples were stored for post-hoc hypothesis generating assessments.
The eluate was analyzed using HPLC with MS/MS detection. […] Clinical sample results were calculated using peak area ratios and calibration curves were generated using a weighted (1/x^2) linear least-squares regression. […] All data were acquired, processed, and reported using Applied Biosystems/MDS-Sciex Analyst Version 1.4 software (www.lifetechnologies.com, Carlsbad, CA).
Area under the concentration time curve to the time point measured at 48hr after the first dose (AUC0–48h) was calculated with the linear trapezoidal method. The terminal rate constant was derived from the slope of the natural log transformed concentrations and times on the terminal elimination phase of the decay curve. Terminal elimination half-life was calculated by dividing 0.693 by the terminal rate constant. The relationship of pharmacokinetic parameters and pharmacodynamic variables were examined using scatter plots.

[3] = system: p-S6RP in human breast cancer cell lines (MCF7 and MDA231); assay: Immunoblot of p-S6RP in human breast cancer cell lines; format: cell-based; conditions: 100 nM, MCF7 and MDA231 cells
Experimental: as §1, §2

[4] = system: p/t-S6RP in PBMC; assay: PBMC p-S6RP/t-S6RP by electrochemiluminescence; format: in vivo, dog
Experimental: Modulation of mTOR pathway targets were evaluated in matched tumor ( Figure 4A .) and PBMC samples ( Figure 4B .) to compare p-S6RP and p-AKT expression pre- and post-rapamycin treatment. ECL techniques were utilized to accurately quantify the relative percentage of phospho-protein over total protein (p/t) in tumor and PBMC. Quality control assessments defined 10 tumor and 8 PBMC samples eligible for evaluation. […] Modulation of mTOR pathway targets in PBMC and tumor samples were concordant.
PBMCS were collected in two (2) 8 ml BD CPT vacutainers (Becton Dickinson, Franklin Lakes, NJ) with sodium heparin, each filled completely with whole blood. […]
The samples (cell lines, tumor, PBMC) used for ECL were prepared based on the Meso-Scale Discovery (MSD) lysate preparation protocol (Meso-Scale Discovery, Gaithersburg, MD) using complete lysis buffer with protease and phosphatase inhibitors. For quantitative analysis of phospho-proteins, duplex t/p-AKT (S473) and duplex t/p-S6RP (S240/S244) were obtained from MSD, used following manufacturer's instructions, and read with Sector Imager 2400 (MSD). […] Out of the 19 paired tumor biopsies analyzed, 9 were excluded due to values below the detection limit, of which 8 were from one trial site. […] PBMC from 8 patients were analyzed for p-S6RP/t-S6RP and all data was shown.

[5] = system: p/t-S6RP (S240/244) in canine osteosarcoma cell lines (BW and SK); assay: ECL quantification of p/t-S6RP in canine osteosarcoma cell lines; format: cell-based
Experimental: as §1
The samples (cell lines, tumor, PBMC) used for ECL were prepared based on the Meso-Scale Discovery (MSD) lysate preparation protocol (Meso-Scale Discovery, Gaithersburg, MD) using complete lysis buffer with protease and phosphatase inhibitors. For quantitative analysis of phospho-proteins, duplex t/p-AKT (S473) and duplex t/p-S6RP (S240/S244) were obtained from MSD, used following manufacturer's instructions, and read with Sector Imager 2400 (MSD). A total of 25 ug of lysates were used per well for the duplex assays. Out of the 19 paired tumor biopsies analyzed, 9 were excluded due to values below the detection limit, of which 8 were from one trial site. […] PBMC from 8 patients were analyzed for p-S6RP/t-S6RP and all data was shown. […]

[6] = system: dogs with appendicular osteosarcoma
Text: All dogs underwent a pre-treatment tumor biopsy and collection of PBMC at study initiation. […] The defined study period was 15 days. Safety, tumoral pharmacodynamic (PD) modulation, correlation to surrogates (PBMC), and the relationship between PK and PD were study endpoints.
Escalation through 5 planned dose cohorts was based on assessment of dose limiting toxicities (DLT) using VCOG modified-CTCAE convention [32]. Age (range, 3.7–11.9 years; median 7.9 years), sex (14 spayed females, 8 castrated males) and breed (5 mixed-breed and 17 purebred) were recorded for all dogs enrolled on study ( Table 3 : Patient Characteristics).
Dogs underwent a complete physical examination, CBC, serum biochemical profile, UA and pre-treatment biopsies at Day 0. Vital signs (core temperature, pulse, respiratory rate) were recorded at baseline. […] Owners completed an Owner Assessment Form on Days 0, 8 and 15 to record impressions of their dog's clinical status throughout the study period.
Blood samples were collected to define hematologic and biochemical DLT. CBC, biochemical profile and urinalysis were evaluated at Day 0, and then weekly (pre-operatively at Day 8 and Day 15) to define safety. The Veterinary Cooperative Oncology Group Common Toxicity Criteria for Adverse Events (VCOG-CTCAE) was used to determine DLT, defined as any grade 3 or grade 4 (hematologic or non-hematologic) events [32]. […] MTD was defined as one dose level below the maximum achieved in dose-escalation. Any and all adverse events were collected within the electronic database reporting system (C3D) following strict one-week reporting timelines.

[7] = Mixed Breed (2 dogs), Boxer (1 dog), 0.04 mg/kg IM daily, N=3
[8] = Mixed Breed (2 dogs), Boxer (1 dog), 0.04 mg/kg IM, after first dose, median (range), N=3
[9] = 0.01 mg/kg IM, after first dose, median (range), N=3
[10] = 0.06 mg/kg IM, after first dose, median (range), N=7
[11] = 0.08 mg/kg IM, after first dose, median (range), N=4
[12] = 0.02 mg/kg IM, after first dose, median (range), N=4
[13] = both, various breeds (5 mixed-breed and 17 purebred dogs), dog, in vivo, 15 days

For CO[C@H]1C[C@@H]2CC[C@@H](C)[C@@](O)(O2)C(=O)C(=O)N2CCCC[C@H]2C(=O)O[C@H]([C@H](C)C[C@@H]2CC[C@@H](O)[C@H](OC)C2)CC(=O)[C@H](C)/C=C(\C)[C@@H](O)[C@@H](OC)C(=O)[C@H](C)C[C@H](C)/C=C/C=C/C=C/1C [rapamycin, Rapamycin], the “rapamycin-mediated inhibition of p-S6RP (immunoblot)” value [1] was “inhibition of p-S6RP”, the “median trough concentrations on day 8 and 9 (CD8, CD9)” value ([2]; 0.06 mg/kg (approx 2.1 mg/day) IM daily) was “greater than 10 ng/mL” and the “median trough concentrations on day 8 and 9 (CD8, CD9)” value ([2]; 0.08 mg/kg (approx 2.8 mg/day) IM daily) was “greater than 10 ng/mL”. The measurable trough levels ([2]; 4th dose cohort (0.06 mg/kg, approx 2.1 mg)) was ≥ 10 ng/mL, the measurable trough levels ([2]; 5th dose cohort (0.08 mg/kg, approx 2.8 mg)) was ≥ 10 ng/mL and the concentration at 15 day ([2]; Mixed Breed (2 dogs), Boxer (1 dog), 0.04 mg/kg IM daily, median (range), N=3) was 1.56 ng/mL. It also gave a concentration at 8 day [2, 7] of 6.62 ng/mL, a concentration at 9 day [2, 7] of 7.92 ng/mL and a concentration at 48 h ([2]; Mixed Breed (2 dogs), Boxer (1 dog), 0.04 mg/kg IM, median (range), N=3) of 1.86 ng/mL. For the same molecule, the Tmax [2, 8] was 24 h, the half-life ([2]; Mixed Breed (2 dogs), Boxer (1 dog), 0.04 mg/kg IM, terminal half-life, median (range), N=3, read-out: T1/2 (converted)) was 62.7 h and the Cmax [2, 8] was 2.87 ng/mL. For the same molecule, the AUC(0-t) [2, 8] was 105 ng·h/mL, the Steady state ([2]; after 8 days of exposure, daily IM) was “not achieved” and the Tmax ([2]; both sexes, all dogs, 0.01–0.08 mg/kg IM, range) was 2 to 48 h. For the same molecule, the half-life ([2]; both sexes, dogs, IM, read-out: terminal half-life) was > 60 h, the half-life ([2]; im, 0.01 mg/kg, read-out: T1/2 (converted)) was 115 h and the concentration at 15 day ([2]; 0.01 mg/kg IM daily, median (range), N=3) was 0.45 ng/mL. For the same molecule, the concentration at 8 day ([2]; 0.01 mg/kg IM daily, N=3) was 2.78 ng/mL, the concentration at 9 day ([2]; 0.01 mg/kg IM daily, N=3) was 1.92 ng/mL and the concentration at 48 h ([2]; 0.01 mg/kg IM, median (range), N=3) was 0.91 ng/mL. The concentration at 15 day ([2]; 0.02 mg/kg IM daily, median (range), N=4) was 0.86 ng/mL, the concentration at 8 day ([2]; 0.02 mg/kg IM daily, N=4) was 5.63 ng/mL and the concentration at 9 day ([2]; 0.02 mg/kg IM daily, N=4) was 5.93 ng/mL. It also gave a concentration at 48 h ([2]; 0.02 mg/kg IM, median (range), N=4) of 1.26 ng/mL, a concentration at 15 day ([2]; 0.06 mg/kg IM daily, median (range), N=7) of 1.04 ng/mL and a concentration at 8 day ([2]; 0.06 mg/kg IM daily, N=7) of 9.84 ng/mL. The concentration at 9 day ([2]; 0.06 mg/kg IM daily, N=7) was 9.3 ng/mL, the concentration at 48 h ([2]; 0.06 mg/kg IM, median (range), N=7) was 3.61 ng/mL and the concentration at 15 day ([2]; 0.08 mg/kg IM daily, median (range), N=4) was 3.66 ng/mL. For the same molecule, the concentration at 8 day ([2]; 0.08 mg/kg IM daily, N=4) was 15.4 ng/mL, the concentration at 9 day ([2]; 0.08 mg/kg IM daily, N=4) was 16.4 ng/mL and the concentration at 48 h ([2]; 0.08 mg/kg IM, median (range), N=4) was 4.6 ng/mL. It also gave a Tmax [2, 9] of 24 h, a Tmax ([2]; 0.02 mg/kg IM, after first dose, median, N=4) of 24 h and a half-life ([2]; 0.02 mg/kg IM, terminal half-life, median (range), N=4, read-out: T1/2 (converted)) of 70.8 h. It also gave a Tmax [2, 10] of 6 h, a half-life ([2]; 0.06 mg/kg IM, terminal half-life, median (range), N=7, read-out: T1/2 (converted)) of 72.7 h and a Tmax [2, 11] of 15 h. The half-life ([2]; 0.08 mg/kg IM, terminal half-life, median (range), N=4, read-out: T1/2 (converted)) was 86.6 h, the Cmax [2, 9] was 1.27 ng/mL and the AUC(0-t) [2, 9] was 47.4 ng·h/mL. The Cmax [2, 12] was 1.69 ng/mL, the AUC(0-t) [2, 12] was 64.3 ng·h/mL and the Cmax [2, 10] was 7.29 ng/mL. It also gave an AUC(0-t) [2, 10] of 285 ng·h/mL, a Cmax [2, 11] of 12.1 ng/mL and an AUC(0-t) [2, 11] of 309 ng·h/mL. For the same molecule, the “systemic exposure (Cmax and AUC0–48h) versus dose” value ([2]; dose range 0.01–0.08 mg/kg IM) was “increased proportionally to rapamycin dose”, the “rapamycin-mediated inhibition of p-S6RP (immunoblot)” value [3] was “inhibition of p-S6RP” and the “PBMC p/t-S6RP inhibition” value ([4]; Day 8, maintained through Day 15, n = 8, p<0.0001) was “highly significant”. For the same molecule, the “dogs with PBMC phosphorylation of S6RP significantly inhibited” value ([4]; Day 8 after rapamycin therapy) was 8/8, the “reduction of p/t-S6RP” value ([5]; BW and SK cells, rapamycin 100 nM for 4 hours vs untreated controls) was “approximately 50 ×” and the “inhibition of down-stream targets of mTOR” value ([5]; canine osteosarcoma cell lines, western blot and ECL) was “inhibits down-stream targets of mTOR in a dose-dependent fashion”. The “anorexia, self-limiting non-dose limiting toxicity (grade 1,2), number of dogs” value [6, 13] was 2, the “diarrhea, self-limiting non-dose limiting toxicity (grade 1,2), number of dogs” value [6, 13] was 1 and the “thrombocytopenia, self-limiting non-dose limiting toxicity (grade 1,2), number of dogs” value [6, 13] was 1. For the same molecule, the “vomiting, self-limiting non-dose limiting toxicity (grade 1,2), number of dogs” value [6, 13] was 2, the febrile episodes reported ([6]; dog, in vivo) was “two” and the “immunosuppression and surgical incision healing delays” value ([6]; dog, in vivo) was “Neither immunosuppression nor surgical incision healing delays were reported”. The “lymphopenia, post-operative infection rate, surgical incision healing delays” value ([6]; dog, in vivo) was “no evident lymphopenia, increased post-operative infection rate, nor surgical incision healing delays”, the “neurological, respiratory, renal, or biochemical toxicities related to treatment” value ([6]; dog, in vivo) was “no clinically significant” and the “tolerability of dose escalation” value ([6]; dog, in vivo) was “well tolerated”. The “maximally tolerated dose (MTD)” value ([6]; escalation to 0.08 mg/kg IM daily, n = 19) was “not defined”.
